According to patent US20210170026A1, “ANTICANCER AGENT, RADIOSENSITIZER, AND FOOD COMPOSITION” (KRACIE PHARMA, LTD., priority 2016, published 2021):

Key:
[1] = cited from earlier work
[2] = test system: human pancreatic cancer cells, MiaPaCa-2 cells; assay: Test Example 1: antitumor effects of arctigenin treatment and radiation therapy in mice transplanted with MiaPaCa-2 cells; assay type: in vivo, BALB/cAJc1-nu/nu mice
Procedure: The antitumor effects of arctigenin treatment and radiation therapy were evaluated. To BALB/cAJc1-nu/nu mice (CLEA Japan, Inc.), 1×10^6 human pancreatic cancer cells, MiaPaCa-2 cells were subcutaneously transplanted. On day 14 after the transplantation, the mice to which the cells were transplanted were divided into four groups of (a) untreated group, (b) arctigenin treatment group, (c) radiation therapy group and (d) arctigenin treatment-radiation therapy-combination group. The arctigenin treatment group and the combination group were treated with arctigenin for two weeks. The arctigenin treatment was conducted by giving feed containing 0.5% (w/w) of the burdock fruit extract of Example 1 to the mice. When the dose of arctigenin was calculated assuming that the daily intake of the feed of the mice was 3 to 5 g, the dose was 1.5 to 2.5 mg/individual/day. After two weeks of the arctigenin treatment, radiation was applied to the tumors of the radiation therapy group and the combination group using an x-ray irradiator (Faxitron X-ray (model: CP160)) under the setting conditions of 160 kV and 6.3 mA at a dose of 20 Gy/fraction through a copper plate filter. Then, the arctigenin administration group and the combination group were treated with arctigenin for two weeks. After the arctigenin treatment, the tumor sizes and the tumor weights of the groups were measured. In addition, the tumors were collected and pathologically analyzed.

[3] = test system: human pancreatic cancer cells, MiaPaCa-2 cells; assay: Test Example 2: order of arctigenin treatment and radiation therapy in mice transplanted with MiaPaCa-2 cells; assay type: in vivo, BALB/cAJc1-nu/nu mice
Procedure: In order to evaluate whether the order of the burdock fruit extract treatment and the radiation therapy would affect the antitumor effects, arctigenin treatment was conducted for two weeks either before or after conducting radiation therapy. To BALB/cAJc1-nu/nu mice (CLEA Japan, Inc.), 1×10^6 human pancreatic cancer cells, MiaPaCa-2 cells were subcutaneously transplanted. On day 14 after the transplantation, the mice to which the cells were transplanted were divided into (a) untreated group, (b) arctigenin treatment group, (c) radiation therapy group and (d) arctigenin treatment-radiation therapy-combination group. The (b) arctigenin treatment group was further divided into a group in which two-week arctigenin treatment was started 14 days after the transplantation and a group in which two-week arctigenin treatment was started four weeks after the transplantation. […] When the dose of arctigenin was calculated assuming that the daily intake of the feed of the mice was 3 to 5 g, the dose was 1.5 to 2.5 mg/individual/day. […] After the two-week arctigenin treatment after the radiation therapy, the tumor sizes and the tumor weights of the groups were measured. In addition, the tumors were collected and pathologically analyzed.

[4] = combination of arctigenin treatment and radiation therapy (20 Gy/fraction), two weeks after the radiation therapy, vs untreated group

In the case of `COc1cc(C[C@H]2C(=O)OC[C@@H]2Cc2ccc(OC)c(OC)c2)ccc1O` [arctigenin], the solubility in water [1] is listed as “insoluble”, the “intratumoral hypoxic region (photon counts/tumor volume) using IVIS” value ([2]; after the arctigenin treatment (before radiation therapy), vs untreated group, FIG. 3, FIG. 4) is listed as “significantly smaller” and the average tumor size ([2]; after two weeks of first arctigenin treatment (before radiation therapy), vs untreated group, feed containing 0.5% (w/w) burdock fruit extract of Example 1, arctigenin 1.5 to 2.5 mg/individual/day, FIG. 2) is listed as “significantly smaller”. For the same compound, the tumor size ([2]; arctigenin treatment alone, after end of treatment (two weeks after the radiation therapy), vs untreated group) was “a tendency towards a smaller tumor size”, the tumor sizes [2, 4] was “significantly smaller” and the tumor weights [2, 4] was “significantly smaller”. The “tumors (size)” value ([2]; combination of arctigenin treatment and radiation therapy, vs radiation therapy alone) was “significantly small”, the “hypoxic state in the tumor” value ([3]; arctigenin treatment before the radiation therapy, IVIS, FIG. 12) was “improved” and the average tumor size ([3]; two-week arctigenin treatment before radiation therapy (AG-Con, RT(+)) vs arctigenin treatment after radiation therapy (Con-AG, RT(+)), FIG. 11) was “shrank significantly”.
